The source of these data is ChEMBL document CHEMBL5226308, “Amide-Amine Replacement in Indole-2-carboxamides Yields Potent Mycobactericidal Agents with Improved Water Solubility” (ACS Med Chem Lett, 2021).

Active and inactive are the calls of the source. The rule behind the calls is not given here.

The nature of experiment [1]: Ratio of MIC90 for antimycobacterial activity against Mycobacterium tuberculosis H37Rv M47-1 harboring mmpL3 G2098A/A700T mutant to MIC90 for antimycobacterial activity against wild type Mycobacterium tuberculosis H37Rv ATCC 27294. The class given is functional.
Experiment [2] can be described thus: Ratio of MIC90 for antimycobacterial activity against Mycobacterium tuberculosis H37Rv M16-1 harboring mmpL3 T854C/V258A mutant to MIC90 for antimycobacterial activity against wild type Mycobacterium tuberculosis H37Rv ATCC 27294. Type of experiment: functional.
Experiment [3] can be described thus: Ratio of MIC90 for antimycobacterial activity against Mycobacterium tuberculosis H37Rv M47-2 harboring mmpL3 A730T/I244F mutant to MIC90 for antimycobacterial activity against wild type Mycobacterium tuberculosis H37Rv ATCC 27294. Type of experiment: functional.
A short description of experiment [4]: Ratio of MIC90 for antimycobacterial activity against Mycobacterium tuberculosis H37Rv M33-1 harboring mmpL3 G1927A/V643M mutant to MIC90 for antimycobacterial activity against wild type Mycobacterium tuberculosis H37Rv ATCC 27294. Type of experiment: functional.
Experiment [5] in a line: Ratio of MIC90 for antimycobacterial activity against Mycobacterium tuberculosis H37Rv M16-4 harboring mmpL3 T2051C/V684A mutant to MIC90 for antimycobacterial activity against wild type Mycobacterium tuberculosis H37Rv ATCC 27294. Type of experiment: functional.
Experiment [6] is described as follows: Ratio of MIC90 for antimycobacterial activity against Mycobacterium tuberculosis H37Rv M16-2 harboring mmpL3 G758A/G253E mutant to MIC90 for antimycobacterial activity against wild type Mycobacterium tuberculosis H37Rv ATCC 27294. The class given is functional.
Experiment [7] in a line: Ratio of MIC90 for antimycobacterial activity against Mycobacterium tuberculosis H37Rv M47-3 harboring mmpL3 Ins2128CAG/Ins710Q mutant to MIC90 for antimycobacterial activity against wild type Mycobacterium tuberculosis H37Rv ATCC 27294. The class given is functional.
Experiment [8] is described as follows: Ratio of MIC90 for antimycobacterial activity against Mycobacterium tuberculosis H37Rv M16-3 harboring mmpL3 T2051G/V684G mutant to MIC90 for antimycobacterial activity against wild type Mycobacterium tuberculosis H37Rv ATCC 27294. Type of experiment: functional.
Experiment [9] can be described thus: Ratio of MIC90 for antimycobacterial activity against Mycobacterium tuberculosis H37Rv M16-5 harboring mmpL3 G758A/G253E mutant to MIC90 for antimycobacterial activity against wild type Mycobacterium tuberculosis H37Rv ATCC 27294. Type of experiment: functional.
Experiment [10] in a line: Ratio of MIC90 for antimycobacterial activity against Mycobacterium tuberculosis H37Rv M47-4 harboring mmpL3 G2041A/V681I mutant to MIC90 for antimycobacterial activity against wild type Mycobacterium tuberculosis H37Rv ATCC 27294. Type of experiment: functional.
In experiment [11] the test system is Mycobacterium tuberculosis. Put plainly: Antimycobacterial activity against Mycobacterium tuberculosis H37Rv M16-3 harboring V684G mutant assessed as inhibition of bacterial growth incubated for 7 days by broth dilution method. The class given is functional, organism-based. Particulars: time 7.0 day.
The subject of experiment [12] is Mycobacterium tuberculosis. Put plainly: Antimycobacterial activity against Mycobacterium tuberculosis H37Rv M16-4 harboring V684A mutant assessed as inhibition of bacterial growth incubated for 7 days by broth dilution method. Particulars: time 7.0 day. Type of experiment: functional, organism-based.
Experiment [13] has as its system Mycobacterium tuberculosis. Put plainly: Antimycobacterial activity against Mycobacterium tuberculosis H37Rv M47-2 harboring I244F mutant assessed as inhibition of bacterial growth incubated for 7 days by broth dilution method. The class given is functional, organism-based. Particulars: time 7.0 day.
Experiment [14] concerns Mycobacterium tuberculosis. Put plainly: Antimycobacterial activity against Mycobacterium tuberculosis H37Rv M47-3 harboring Ins710Q mutant assessed as inhibition of bacterial growth incubated for 7 days by broth dilution method. Type of experiment: functional, organism-based. The following applies: time 7.0 day.
Experiment [15] concerns Mycobacterium tuberculosis. Put plainly: Antimycobacterial activity against Mycobacterium tuberculosis H37Rv M47-1 harboring A700T mutant assessed as inhibition of bacterial growth incubated for 7 days by broth dilution method. Type of experiment: functional, organism-based. The following applies: time 7.0 day.
Experiment [16] concerns Mycobacterium tuberculosis. Put plainly: Antimycobacterial activity against Mycobacterium tuberculosis H37Rv M47-4 harboring V681I mutant assessed as inhibition of bacterial growth incubated for 7 days by broth dilution method. Type of experiment: functional, organism-based. Particulars: time 7.0 day.
For experiment [17], the system named is Mycobacterium tuberculosis. Put plainly: Antimycobacterial activity against Mycobacterium tuberculosis H37Rv M33-1 harboring V643M mutant assessed as inhibition of bacterial growth incubated for 7 days by broth dilution method. Type of experiment: functional, organism-based. The following applies: time 7.0 day.
Experiment [18] concerns Mycobacterium tuberculosis. Put plainly: Antimycobacterial activity against Mycobacterium tuberculosis H37Rv M16-1 harboring V285A mutant assessed as inhibition of bacterial growth incubated for 7 days by broth dilution method. The class given is functional, organism-based. The following applies: time 7.0 day.
Experiment [19] has as its system Mycobacterium tuberculosis. Put plainly: Antimycobacterial activity against Mycobacterium tuberculosis H37Rv M16-5 harboring G253E mutant assessed as inhibition of bacterial growth incubated for 7 days by broth dilution method. The class given is functional, organism-based. Particulars: time 7.0 day.

On to `O=C(NC1CCCCCCC1)c1cc2ccc(C(F)(F)F)cc2[nH]1`, for which the Ratio in experiment [1], in experiment [2], in experiment [3], in experiment [4], in experiment [5] and in experiment [6] was 5 in each case. The Ratio in [7], in experiment [8], in [9] and in experiment [10] was 5 throughout.

For `c1ccc2sc(CNC3CCCCCCC3)cc2c1`, the Ratio in experiment [1], in experiment [2], in [3], in [4], in experiment [5] and in experiment [6] was 5 each time. Moreover, the Ratio in experiment [7], in [8], in experiment [9] and in experiment [10] was 5 in each case.

In the case of `FC(F)(F)c1ccc2cc(CNC3CCCCCCC3)[nH]c2c1`, the Ratio in experiment [1], in experiment [2], in experiment [3], in experiment [4], in [5] and in [6] was 5 in each case. The Ratio in [7], in experiment [8], in [9] and in [10] was 5 throughout.

On to `O=C(NC1CCCCCCC1)c1cc2ccccc2[se]1`, for which the result in experiment [11], in [12], in experiment [13], in [14], in experiment [15] and in experiment [16] was inactive. Further, the outcome in [17], in experiment [18] and in experiment [19] was inactive.

For `O=C(NC1CCCCCCC1)c1cc2ccccc2s1`, the outcome in experiment [11], in experiment [12], in experiment [13], in [14], in [15] and in [16] was inactive. For the same compound, the result in [17], in experiment [18] and in experiment [19] was inactive.

As for `c1ccc2[se]c(CNC3CCCCCCC3)cc2c1`, the outcome in [11], in experiment [12], in [13], in experiment [14], in experiment [15] and in [16] was inactive. For the same compound, the result in [17], in experiment [18] and in experiment [19] was inactive.
